Experiment [1] concerns HepG2 cells. As to the kind of experiment: MitoBiogenesis In-Cell ELISA (COX-I, SDH-A). It counts as cell-based. The following applies: Homo sapiens, 168 h, 10 uM, 7 days, read-out: % increase in Mitochondrial Biogenesis. From the text:
We determined the effect of compounds of the present disclosure on the levels of two mitochondrial proteins using MitoBiogenesis™ In-Cell ELISA Kit (Abcam ab110216) according to manufacturer's instructions. The two proteins are each subunits of a different oxidative phosphorylation enzyme complex, one protein being subunit I of Complex IV (COX-1), which is mitochondrial (mt)DNA-encoded, and the other being the 70 kDa subunit of Complex II (SDH-A), which is nuclear (n)DNA-encoded. Complex IV includes several proteins which are encoded in the mitochondrion, while the proteins of Complex II are entirely encoded in the nucleus. HepG2 cells (ATCC, HB-8065) were cultured (5% CO2 at 37° C.) and plated in Poly-D-Lysine 384-Well plate (Corning, 356663) at a density of 40,000 cells/mL in 50 μL. Culture and assay media consisted of DMEM (Gibco, 11995-065) supplemented with 1% Penicillin-Streptomycin and 10% FBS (Hyclone, SV30087.03). Cells were allowed to settle for 30 min at room temperature and further incubated overnight (37° C. and 5% CO2) for adherence. Next day, 50-5 μM of the negative control Chloramphenicol (Selleck, S1677), test compounds (50-10 μM) and vehicle DMSO (0.2%) were added at the recommended volumes to the 384-well plate for 7 days without media change using a Tecan compound dispenser. All the solutions and wash buffers were prepared and dispensed according to manufacturer's volumes for a 384-well plate format. Effects of compounds on mtDNA-encoded protein expression (COX-I) and nuclear DNA-encoded mitochondrial protein expression (SDH-A) were expressed as relative signal (nm) to vehicle of a n=2 per conditions.

Experiment [2] deals with HepG2 cells. Put plainly: Mitochondrial membrane potential (MITO-ID MP detection Kit). The class given is cell-based. The following applies: Homo sapiens, 168 h, 7 days, read-out: % decrease in Mitochondrial Membrane Potential. In outline: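 Cells plated at 160000 cells/mL in DMEM with 10% FBS and 1% Pen-Strep, adhered overnight at 37° C., 5% CO2. Exposure to test compounds (50-10 μM) or 0.2% DMSO for 7 days without media change; membrane potential measured with MITO-ID MP detection kit per manufacturer.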

The subject of experiment [3] is Dermal fibroblasts (HDF3CGF system). As to the kind of experiment: BioMAP HDF3CGF system (IL-1β, TNFα, IFNγ, EGF, bFGF, PDGF-BB). Conditions: Homo sapiens, Fibroblast, 72 h; 1 uM; read-out: % increase in 72 Hour Proliferation. The class given is cell-based, human.
Experiment [4] deals with Peripheral blood mononuclear cells co-cultured with venular endothelial cells (HUVEC) (LPS system). Put plainly: BioMAP LPS system. The class given is cell-based, human. Conditions: 10 uM, procedure of Example 827.
The test system of experiment [5] is Coronary artery smooth muscle cells (CASM3C system). As to the kind of experiment: BioMAP CASM3C system (IL-1β, TNFα, IFNγ). The class given is cell-based, human.
In experiment [6] the test system is Peripheral blood mononuclear cells co-cultured with B-cells (BT system). As to the kind of experiment: cells. The following applies: Homo sapiens, 72 h, read-out: % decrease in sIL-17.
Experiment [7] deals with Keratinocytes co-cultured with dermal fibroblast (KF3CT system). Put plainly: BioMAP KF3CT system (IL-1β, TNFα, IFNγ, TGFβ). It counts as cell-based, human. The following applies: 1 uM. The procedure: The BioMAP platform (BioMAP® Diversity PLUS® Panel from Eurofins) is an in vitro phenotypic profiling technology that screened the compounds of the present disclosure (hereafter indicated as test agents) in human primary cell-based systems modelling complex tissue and disease states. The BioMAP assays were performed using the Eurofin's BioMAP Technology Platform as (see references 1 to 13 in the example 824 section) to model different diseases on primary cell-based model systems. These systems consisted of either single primary cell types or co-culture cells. Adherent cell types were cultured or co-cultured in 96 or 384-well plates until confluence followed by the addition of compounds prepared in DMSO at a final concentration of ≤0.1%. In each cell-based system, primary cells from heathy donors (2-6 donors) were pooled and treated with compounds at 1 and 10 μM dose 1h prior to stimulation and remain in culture as indicated in Example 825, Example 826, Example 827, Example 828, Example 829, Example 830, Example 831, Example 832, Example 833, Example 834, Example 835, Example 836 and Example 837. For on the BioMAP® Diversity PLUS® Panel, please see the following references, which are incorporate herein.
Following the general procedure as described in Example 824, Keratinocytes were co-cultured with dermal fibroblast (KF3CT system) and treated with IL-1β, TNFα, IFNγ and TGFβ for 24h in the presence or absence of the compounds to model psoriasis, dermatitis and skin biology. Biomarkers read out were; MCP-1, ICAM-1, IP-10, IL-8, MIG, IL-1α, MMP-9, PAI-1, SRB, TIMP-2, uPA.

The subject of experiment [8] is Propionic Acidemia (PA) primary fibroblasts GM00371. Put plainly: Mitochondrial respiration, XFe96 Extracellular Flux Analyzer (OCR/ECAR), PA fibroblasts GM00371. It counts as cell-based. Conditions: Homo sapiens, Fibroblast, 50 μM, read-out: Increase in Maximal Respiratory Capacity AUC.
For experiment [9], the system named is Methylmalonic Acidemia (MMA) primary fibroblasts GM01673. Put plainly: Mitochondrial respiration, XFe96 Extracellular Flux Analyzer (OCR/ECAR), MMA fibroblasts GM01673. The following applies: Homo sapiens, Fibroblast, 10 μM. It counts as cell-based. On the procedure:
The effect of the compounds of the present disclosure on mitochondrial respiration was measured with a XFe96 Extracellular Flux Analyzer (Seahorse Bioscience, Agilent Technologies) and Oxygen consumption Rate (OCR) and Extracellular acidification rate (ECAR) determined.
Cell culture and treatments. Primary adherent fibroblasts were cultured in minimum essential medium (MEM) (Gibco, 25030081) supplemented with 2 mM L-Glutamine (Gibco, 25030081), 15% fetal bovine serum (FBS) (Gibco, 26400044) and 1% penicillin/streptomycin (Gibco, 5140122) at 37° C. and 5% CO2. Cells were collected for either passaging or experiment at ˜70-80% confluence. Cells were obtained by trypsinization and seeded at 20000 cells/well in cell culture microplates (Seahorse Bioscience, 101085-004) and allowed to adhere for 16 hours in culture media.
By profiling different primary cells and/or optimizing their culture media or environmental components one can select cell lines and/or conditions that are appropriate for the biological or disease model. In the present example, 24 hours prior to OCR and ECAR profiling, media was changed to Dulbecco's Modified Eagle Medium (DMEM, Agilent Seahorse 103575-100) with the appropriate supplements for the different primary cells (10 mM glucose, 2 mM L-glutamine, 1 mM pyruvate, 10% FBS; 1 mM glucose, 2 mM L-glutamine, 1 mM pyruvate, 10% FBS; 10 mM glucose, 10% FBS; 5 mM glucose 10% FBS; 1 mM glucose 10% FBS). Cells used in this example were: Propionic Acidemia (PA) (GM00371, GM03590 Coriell Institute for Medical Research, Tsi 6337, Tsi 4626, Tsi 3618 Trans-Hit Bio), Methylmalonic Acidemia (MMA) (GM01673, Coriell Institute for Medical Research, Tsi 5224 Trans-Hit Bio), Branched chain ketoacid dehydrogenase kinase (BCKDK) (GM00612, GM00649 Coriell Institute for Medical Research), Subnormal activation of pyruvate dehydrogenase complex (PDH) (GM01503 Coriell Institute for Medical Research), Very long-chain acyl-CoA dehydrogenase (VLCAD) (GM17475), Leigh Syndrome (LS) (GM03672, GM13411 Coriell Institute for Medical Research), Pyruvate Carboxylase Deficiency (PC) (GM00444 Coriell Institute for Medical Research), Glutaric Acidemia-I (GA) (GM10653), Friedreich's Ataxia (FXN) (GM04078 Coriell Institute for Medical Research, Huntington's disease (HD) (GM21756 Coriell Institute for Medical Research), Ornithine Transcarbamylase Deficiency (OTC) (GM12756 Coriell Institute for Medical Research), Kearns-Sayre Syndrome (KSS) (GM06225 Coriell Institute for Medical Research).
One hour before the assay, the cells were washed with freshly prepared unbuffered serum free-Seahorse XF Assay medium (Seahorse Bioscience, North America, USA, 103575-100) with the same supplements as for the previous 24 hour incubation.
After baseline measurements of OCR, cells were challenged with compounds of the present disclosure at different concentrations (10 to 50 μM) or vehicle (DMSO, 0.1%) and a post-compound baseline was recorded. OCR was measured after sequentially adding to each well 1 μg/ml oligomycin (inhibitor of ATP synthase Sigma-Aldrich, 753531), then maximal OCR was determined with carbonyl cyanide 4-(trifluoromethoxy) phenylhydrazone (FCCP, Sigma-Aldrich, C2920), (uncoupler of oxidative phosphorylation) and 0.5 μM of rotenone (Sigma-Aldrich, R8875) plus antimycin A (Sigma-Aldrich, A8674) (inhibitors of mitochondrial complex I and III) for determination of rotenone-antimycin insensitive respiration together with Hoechst for nuclear staining in situ when normalized to cell counts. After the analysis and nuclear staining, the XFp microplate was transferred to the Cytation 5, and the nuclear images were captured, the individual nuclei were identified and counted by BioTek Gen5 software. Data were expressed as pmol of O2 per minute and normalized by nuclear staining and baselined to pre-compound addition.
Assay conditions were as stated below.
Assay specifics on assay conditions are indicated below when readouts were normalized to cell counts. […]

In experiment [10] the test system is Bronchial epithelial cells co-cultured with dermal fibroblast (BF4T system). As to the kind of experiment: BioMAP BF4T system (TNFα and IL-4). It counts as cell-based, human. Conditions: Homo sapiens, 24 h; 1 uM; procedure of Example 830; read-out: % increase in VCAM-1.
Experiment [11] concerns HepG2 cells. Put plainly: Glucose uptake (Glucose Uptake-Glo). Conditions: Homo sapiens, 50 uM, read-out: % increase in Glucose Uptake. It counts as cell-based.
Experiment [12] deals with Bronchial epithelial cells (BE3C system). Put plainly: BioMAP BE3C system (IL-1β, TNFα, IFNγ). Conditions: Homo sapiens, Epithelial cell, 24 h; 10 uM; procedure of Example 831; read-out: % decrease in MMP-1. It counts as cell-based, human.
Experiment [13] has as its system primary fibroblasts (healthy controls and PA, MMA, BCKDK, PDH, VLCAD, LS, PC, GA, VLCFA, KSS, FXN, HD). Put plainly: Measurement of ROS (H2DCFDA) in primary fibroblasts. Conditions: Homo sapiens, Fibroblast, PC GM00444, procedure Example 812, Assay Condition C. The class given is cell-based, human. In outline: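 Patient and healthy-control primary fibroblasts switched to supplemented DMEM 24 h before assay, then treated with compound (10 μM) plus H2DCFDA (22 μM) for 2 h (PA, MMA lines) or 24 h (other lines). Kinetic fluorescence at 492/527 nm over 60 min; only live cells analysed.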

Molecules are shown by their SMILES. Read-outs that look alike come from different tables or passages of the source.

Four compounds from patent publication US20230107216A1, “PANTETHEINE DERIVATIVES AND USES THEREOF” (Comet Therapeutics, Inc., priority 2018, published 2023) can be followed below.

With `COC(=O)CCC(=O)SCCNC(=O)CCNC(=O)[C@H](O)C(C)(C)COP(=O)(O)O` [Compound 62, Methyl (R)-4-((2-(3-(2-hydroxy-3,3-dimethyl-4-(phosphonooxy)butanamido)propanamido)ethyl)thio)-4-oxobutanoate], the activation at 10 µM in the experiment with HepG2 cells [1] was > 5%. In addition, the inhibition at 50 µM in the experiment on HepG2 cells [2] (50 uM) is > 50%.
Regarding `CC(C)(CO)[C@@H](O)C(=O)NCCC(=O)NCCSC(CC(=O)O)C(=O)OCC[N+](C)(C)C` (stereo partly drawn) [Compound 57, 3-(2-{3-[(R)-2,4-dihydroxy-3,3-dimethylbutyrylamino]propionylamino}ethylthio)-3-(2-trimethylazaniumethoxycarbonyl)propionic acid], the activation at 1 µM in experiment [3] and in [10] was ≥ 10% each time. The “% increase in sPGE2” value in [4] is ≥10%. Further, the inhibition at 10 µM in experiment [4] (Homo sapiens, HUVEC, 24 h, read-out: % decrease in TissueFactor) was ≥ 10%; in [5] (Homo sapiens, 24 h, 10 uM, read-out: % decrease in Thrombomodulin), ≥ 20%; in experiment [6], ≥ 20%; in experiment [12], ≥ 10%. The activation at 10 µM in experiment [4] (Homo sapiens, HUVEC, 24 h, read-out: % increase in sTNFα) was ≥ 20%; in experiment [9] (assay condition D (1 mM glucose, 10% FBS), read-out: Increase in Maximal Respiratory Capacity AUC), ≥ 10%. The “% decrease in Tissue Factor” value in experiment [5] (1 uM) is ≥10%. For the same compound, in experiment [5] (1 uM, procedure of Example 832), the “% decrease in Proliferation” value is ≥10%. In addition, the “% decrease in CXCL9” value in experiment [5] (10 uM) is ≥10%. For the same compound, the “% decrease in HLA-DR” value in experiment [5] (10 uM) is given as ≥10%. Further, the “% decrease in PAI-I” value in experiment [7] is on record as ≥10%. Besides, the “% decrease in MCP-1” value in [7] (procedure of 834) is ≥10%. In addition, the activation at 50 µM was ≥ 10% in experiment [8] (assay condition C (10 mM glucose, 10% FBS)) and ≥ 20% in the experiment with HepG2 cells [11].
As to `CC(C)(CO)[C@@H](O)C(=O)NCCC(=O)NCCSC(=O)CC[C@H](N)C(=O)O` [Compound 385, (S)-2-amino-5-((2-(3-((R)-2,4-dihydroxy-3,3-dimethylbutanamido)propanamido)ethyl)thio)-5-oxopentanoic acid], in experiment [8] (assay condition D (1 mM glucose, 10% FBS)), the activation at 50 µM is ≥ 10%. Besides, the activation at 10 µM in [9] (assay condition A (10 mM glucose, 2 mM L-glutamine, 1 mM pyruvate, 10% FBS), read-out: Increase in Spare Capacity AUC) is ≥ 10%. Moreover, the inhibition at 10 µM in [13] (read-out: Decreased ROS by at least 10%) was ≥ 10%; in experiment [13] (read-out: Decreased ROS by at least 30%), ≥ 30%.
Take `CSCCNC(=O)CCNC(=O)[C@H](O)C(C)(C)CO` [Compound 1250, (R)-2,4-dihydroxy-3,3-dimethyl-N-(3-((2-(methylthio)ethyl)amino)-3-oxopropyl)butanamide]: the activation at 10 µM with HepG2 cells [1] is > 5%. Moreover, in the experiment on HepG2 cells [2] (10 uM), the inhibition at 10 µM is > 50%.
